The values below come from patent EP0556482B1, “Propyl endopeptidase inhibitor” (SNOW BRAND MILK PRODUCTS CO., LTD., priority 1991, dated 1993).

The target of series [1] is T1, prolyl endopeptidase derived from human placenta (Homo sapiens, UniProt P48147).
T1 sequence (P48147 1-710): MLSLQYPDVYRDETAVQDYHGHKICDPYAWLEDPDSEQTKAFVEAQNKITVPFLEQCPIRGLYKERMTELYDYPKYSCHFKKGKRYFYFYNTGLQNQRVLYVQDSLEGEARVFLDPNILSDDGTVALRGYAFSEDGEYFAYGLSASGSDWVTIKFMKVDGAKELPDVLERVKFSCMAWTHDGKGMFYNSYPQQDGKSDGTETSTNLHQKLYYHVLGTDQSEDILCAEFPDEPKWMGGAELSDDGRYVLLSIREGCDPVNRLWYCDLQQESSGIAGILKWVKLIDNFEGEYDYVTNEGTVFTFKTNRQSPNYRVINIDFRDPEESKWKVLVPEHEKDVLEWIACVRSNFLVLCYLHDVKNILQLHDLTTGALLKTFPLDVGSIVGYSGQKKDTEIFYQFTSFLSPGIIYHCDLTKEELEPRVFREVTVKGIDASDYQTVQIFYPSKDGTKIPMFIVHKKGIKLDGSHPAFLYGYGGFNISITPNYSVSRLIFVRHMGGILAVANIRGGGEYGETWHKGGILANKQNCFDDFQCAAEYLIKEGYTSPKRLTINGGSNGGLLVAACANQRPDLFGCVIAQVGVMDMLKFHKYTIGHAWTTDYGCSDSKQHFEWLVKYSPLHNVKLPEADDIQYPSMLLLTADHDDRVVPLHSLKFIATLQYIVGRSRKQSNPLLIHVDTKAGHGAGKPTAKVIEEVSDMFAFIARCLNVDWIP
As to the kind of experiment: Prolyl endopeptidase inhibitive activity, human placenta enzyme (fluorometric, Z-Gly-Pro-7-AMC substrate). Type of series: biochemical. Further details: obtaining a supernatant, from which microsome fractions had been removed, as a prolyl endopeptidase fraction; from tissue; host or cells: human placenta, cytosol fraction (104,000 x g supernatant). On the procedure:
(§1) The inhibitive activity of enduracidin A was measured by using a methanol solution of this compound.
(§2) The prolyl endopeptidase inhibitive activity in the present invention was measured by the following method. Prolyl endopeptidase from human placenta was prepared according to the method for preparing aromatase [Chem. Pharm. […] The placenta tissues were pulverized and homogenized with a 67 mM potassium phosphate buffer (pH 7.5) containing 5 mM DTT and 0.25 M sucrose. The homogenized solution was centrifuged at 10,000 x g for 30 minutes to obtain a supernatant.
To carry out the enzyme reaction, 0.01 ml of each sample dissolved in methanol in various concentrations and 0.01 ml of the placenta cytosol fraction were added to 0.96 ml of a 0.1 M Tris-HCl buffer solution (pH 7.0), and the resulting solution was mixed and incubated at 37°C for 5 minutes. The reaction was initiated by the addition of 0.02 ml of a 2 mM solution of synthesized substrate, Z-Gly-Pro-7-AMC (a product of Cambridge Research Biochemicals), dissolved in 40% dioxane to said solution, and continued for 10 minutes at 37°C. After the reaction, 0.5 ml of a reaction termination agent (10 g of Triton X-100/95 ml, 1 M acetate buffer, pH 4.0) and 2 ml of water were added to measure 7-AMC (7-amino-4-methylcoumarin) liberated by the reaction at an excitation wavelength of 380 nm and an emission wavelength of 460 nm.
(§3) The inhibition rate was determined by the formula, [(A-B)/A] x 100 (%), wherein A represents a fluorescent concentration of liberated 7-AMC in the reaction of the control and B is a fluorescent concentration of liberated 7-AMC in the reaction to which a sample was added.

For series [2], the target named is T2, prolyl endopeptidase derived from Flavobacterium (Elizabethkingia meningoseptica, UniProt P27028).
T2 construct: purchased Seikagaku Kogyo Co
It is filed as biochemical. The settings on record: Table 1; enzyme from Flavobacterium; read-out: IC₅₀ (µM) Flavobacterium. The procedure: as §1, §3

A further series concerns mouse. The conditions noted are these: in vivo, ip; cited from earlier work.
Another series relates to rat. The conditions noted are these: in vivo, iv; cited from earlier work.
In series [3] the target is T1, prolyl endopeptidase derived from human placenta. As to the kind of experiment: Prolyl endopeptidase inhibitive activity, human placenta enzyme (fluorometric, Z-Gly-Pro-7-AMC substrate). It is filed as biochemical. The arrangement: obtaining a supernatant, from which microsome fractions had been removed, as a prolyl endopeptidase fraction; from tissue; host or cells: human placenta, cytosol fraction (104,000 x g supernatant), crude enzyme. The procedure:
as §1, §2
To carry out the enzyme reaction, 0.01 ml of each sample dissolved in methanol in various concentrations and 0.01 ml of the placenta cytosol fraction were added to 0.96 ml of a 0.1 M Tris-HCl buffer solution (pH 7.0), and the resulting solution was mixed and incubated at 37°C for 5 minutes. The reaction was initiated by the addition of 0.02 ml of a 2 mM solution of synthesized substrate, Z-Gly-Pro-7-AMC (a product of Cambridge Research Biochemicals), dissolved in 40% dioxane to said solution, and continued for 10 minutes at 37°C. […]
as §3

Where [4] appears, read: comparison of both enzymes, in words.

Like-named read-outs stand apart in the source and are kept apart here. *1 amine or outer side, *2 acyl side, *3 side chain or, on linkers, in order; H or OH if unused. Where a SMILES comes first, the peptide text is derived from it. Bridges are numbered along the chain shown (N, C = ends). [ ]: non-standard residue; d: D form. The star is where a group is joined. Undeca(2Z,4E)dienoyl(10-Me) = CC(C)CCCC/C=C/C=C\C(=O)*; Phg(3,5-Cl2-4-OH) = N[C@H](C(=O)O)c1cc(Cl)c(O)c(Cl)c1; X1 = N=C1NC[C@@H](C[C@@H](N[*:1])C(=O)[*:2])N1; X2 = N=C1NC[C@@H](C[C@H](N[*:1])C(=O)[*:2])N1; d(aThr) = C[C@@H](O)[C@@H](N)C(=O)O; dHpg = N[C@@H](C(=O)O)c1ccc(O)cc1; Hpg = N[C@H](C(=O)O)c1ccc(O)cc1; Cit = NC(=O)NCCC[C@H](N)C(=O)O; aThr = C[C@H](O)[C@H](N)C(=O)O; dOrn = NCCC[C@@H](N)C(=O)O

T2 sequence (P27028 21-705): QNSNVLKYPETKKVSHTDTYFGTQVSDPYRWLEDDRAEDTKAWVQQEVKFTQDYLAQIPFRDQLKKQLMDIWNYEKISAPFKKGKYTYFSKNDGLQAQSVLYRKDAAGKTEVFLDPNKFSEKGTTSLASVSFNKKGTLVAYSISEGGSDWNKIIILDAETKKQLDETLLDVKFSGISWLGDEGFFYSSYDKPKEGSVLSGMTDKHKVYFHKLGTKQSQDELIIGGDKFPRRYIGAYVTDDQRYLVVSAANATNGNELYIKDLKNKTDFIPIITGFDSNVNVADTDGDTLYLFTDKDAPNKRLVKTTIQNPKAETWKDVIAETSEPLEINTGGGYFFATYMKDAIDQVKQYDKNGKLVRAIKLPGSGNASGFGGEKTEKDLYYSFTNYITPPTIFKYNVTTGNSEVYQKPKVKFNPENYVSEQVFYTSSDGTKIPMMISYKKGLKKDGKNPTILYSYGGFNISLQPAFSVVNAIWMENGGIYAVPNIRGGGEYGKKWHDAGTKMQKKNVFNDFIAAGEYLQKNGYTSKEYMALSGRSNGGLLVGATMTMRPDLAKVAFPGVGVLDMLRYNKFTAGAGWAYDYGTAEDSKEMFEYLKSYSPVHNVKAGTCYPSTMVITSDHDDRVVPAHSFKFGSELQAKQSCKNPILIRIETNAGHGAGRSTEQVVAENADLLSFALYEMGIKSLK

With `CN[C@@H]1C[C@H]2O[C@@](C)([C@@H]1OC)n1c3ccccc3c3c4c(c5c6ccccc6n2c5c31)C(=O)NC4` [Staurosporine], the IC50 in series [1] is > 107 µM. Also, the “inhibitive activity to the enzyme derived from human placenta” value in series [1] (result in words) is “very weak inhibitive activity”.
Consider `CC[C@H](C)[C@H](NC(=O)[C@H](Cc1ccccc1)NC(=O)[C@@H](NC(=O)[C@H](Cc1c[nH]cn1)NC(=O)CNC(=O)CNC(=O)[C@H](Cc1ccccc1)NC(=O)[C@H](CC(C)C)NC(=O)[C@@H]1CC(=O)NCC(=O)N[C@@H](Cc2ccc(O)cc2)C(=O)N2CCC[C@H]2C(=O)N[C@@H](Cc2c[nH]c3ccccc23)C(=O)N[C@@H](Cc2c[nH]c3ccccc23)C(=O)N[C@@H](CC(=O)O)C(=O)N[C@@H](Cc2ccc(O)cc2)C(=O)N[C@@H](CCCNC(=N)N)C(=O)N1)[C@@H](C)O)C(=O)N[C@@H](CO)C(=O)N1CCC[C@H]1C(=O)O` [SNA-115] (GYPWWDYRDLFGGHTFISP-OH; lactam N-9), for which the IC50 was determined as 0.35 µM in series [2] and 0.22 µM in series [1] (Table 1, enzyme from human placenta, read-out: IC₅₀ (µM) Human placenta). Further, the “specificity: inhibitive activity to enzyme from human placenta compared with enzyme from Flavobacterium” value in series [1] (setting [4]) is on record as “almost the same degree of inhibitive activity”.
In the case of `CC(C)CCCC/C=C/C=C\C(=O)N[C@@H](CC(=O)O)C(=O)N[C@@H]1C(=O)N[C@H](c2ccc(O)cc2)C(=O)N[C@H](CCCN)C(=O)N[C@H]([C@@H](C)O)C(=O)N[C@@H](c2ccc(O)cc2)C(=O)N[C@H](c2ccc(O)cc2)C(=O)N[C@@H]([C@H](C)O)C(=O)N[C@@H](CCCNC(N)=O)C(=O)N[C@H](C[C@@H]2CNC(=N)N2)C(=O)N[C@@H](c2ccc(O)cc2)C(=O)N[C@H](CO)C(=O)N[C@@H](c2cc(Cl)c(O)c(Cl)c2)C(=O)NCC(=O)N[C@@H](C[C@@H]2CNC(=N)N2)C(=O)N[C@H](C)C(=O)N[C@@H](c2ccc(O)cc2)C(=O)O[C@@H]1C` [Enduracidin A] ({Undeca(2Z,4E)dienoyl(10-Me)}-DT[dHpg][dOrn][d(aThr)][Hpg][dHpg][aThr][Cit][X1][Hpg][dS][Phg(3,5-Cl2-4-OH)]G[X2][dA][Hpg]; ester 2-C), the “acute toxicity LD₅₀” value with mouse is given as “greater than 400 mg/kg”; in the series on rat, > 300 mg/kg. Further, the mode of inhibition result in series [3] (Dixon Plot, enzyme from human placenta) is reported as “noncompetitive inhibition”. For the same compound, the “specificity: inhibitive activity to enzyme from human placenta compared with enzyme from Flavobacterium” value in series [3] (setting [4]) is given as “much higher specificity to the enzyme derived from human placenta”.
